This is an account of results in PMC8170749, “4-(1-Benzyl-1H-benzo[d]imidazol-2-yl)-4-oxo-2-butenoic Acid Derivatives: Design, Synthesis and Anti-HIV-1 Activity” (Iranian Journal of Pharmaceutical Research : IJPR, 2021).

One series concerns HIV-1 integrase (IN). Set-up: method as in PMID 27659398, PMID 21728968, PMID 22214459, PMID 21767569. The conditions noted are these: cited from earlier work.
The subject of the next series is HIV-1. Details: method as in PMID 27659398, PMID 21728968, PMID 22214459, PMID 21767569. Particulars: cited from earlier work.
Details of series [1]: method as in PMID 27659398, PMID 21728968, PMID 22214459, PMID 21767569. The conditions noted are these: cited from earlier work.
The subject of series [2] is single cycle replicable HIV NL4-3 virions. Kind of series: single-cycle HIV-1 replication assay in HeLa cells (p24 ELISA). Type of series: cell-based. Particulars: for EC50: Human immunodeficiency virus 1, NL43, HeLa, 72 h, read-out: Anti-HIV-1 activity (EC50).
The nature of the next series: in vitro. Particulars: human.

Regarding `COc1cccc2c1c(C(=O)/C=C(\O)C(=O)O)cn2Cc1ccc(F)cc1` [CHI-1043], the “inhibitory activity in enzymatic assays” value in the series on HIV-1 integrase (IN) is “submicromolar”. Also, in the series on HIV-1, the “inhibitory activity in cellular assays” value is given as “submicromolar”. For the same molecule, the cell toxicity result in series [1] is on record as “low cell toxicity”.
For `O=C(O)C(O)=CC(=O)c1nc2ccccc2n1Cc1ccccc1` [Compound 13a, 4-(1-benzyl-1H-benzo[d]imidazol-2-yl)-2-hydroxy-4-oxo-2-butenoic acid], in series [2], the “SI (selectivity index, CC50/EC50 ratio)” value was determined as 4.5 and the EC50 was 110 µM. Moreover, in “in vitro”, the CC50 at 72 h is 500 µM.
Take `Cc1ccccc1Cn1c(C(=O)C=C(O)C(=O)O)nc2ccccc21` [Compound 13b, 4-(1-(2-methylbenzyl)-1H-benzo[d]imidazol-2-yl)-2-hydroxy-4-oxo-2-butenoic acid]: in series [2], the “SI (selectivity index, CC50/EC50 ratio)” value is on record as 9.8 and the EC50 turned out to be 60 µM. Besides, the CC50 at 72 h in “in vitro” was found to be 590 µM.
The like results for `Cc1cccc(Cn2c(C(=O)C=C(O)C(=O)O)nc3ccccc32)c1` [Compound 13c, 4-(1-(3-methylbenzyl)-1H-benzo[d]imidazol-2-yl)-2-hydroxy-4-oxo-2-butenoic acid] were, in that order, 5.7, 75 µM and 430 µM.
The like results for `Cc1ccc(Cn2c(C(=O)C=C(O)C(=O)O)nc3ccccc32)cc1` [Compound 13d, 4-(1-(4-methylbenzyl)-1H-benzo[d]imidazol-2-yl)-2-hydroxy-4-oxo-2-butenoic acid] were, in that order, 11.6, 50 µM and 580 µM.
On the same counts, the results for `O=C(O)C(O)=CC(=O)c1nc2ccccc2n1Cc1ccccc1Cl` [Compound 13e, 4-(1-(2-chlorobenzyl)-1H-benzo[d]imidazol-2-yl)-2-hydroxy-4-oxo-2-butenoic acid] are 2.4, 155 µM and 380 µM.
Regarding `O=C(O)C(O)=CC(=O)c1nc2ccccc2n1Cc1cccc(Cl)c1` [Compound 13f, 4-(1-(3-chlorobenzyl)-1H-benzo[d]imidazol-2-yl)-2-hydroxy-4-oxo-2-butenoic acid], in series [2], the “SI (selectivity index, CC50/EC50 ratio)” value was determined as 7.4 and the concentration giving a half-maximal response (EC50) worked out at 55 µM. Moreover, the CC50 at 72 h in the series “in vitro” came to 410 µM.
In the case of `O=C(O)C(O)=CC(=O)c1nc2ccccc2n1Cc1ccccc1F` [Compound 13g, 4-(1-(2-fluorobenzyl)-1H-benzo[d]imidazol-2-yl)-2-hydroxy-4-oxo-2-butenoic acid], in series [2], the “SI (selectivity index, CC50/EC50 ratio)” value came out at 13.7 and the EC50 amounted to 40 µM. In addition, the CC50 at 72 h in the series “in vitro” stood at 550 µM.
With `O=C(O)C(O)=CC(=O)c1nc2ccccc2n1Cc1cccc(F)c1` [Compound 13h, 4-(1-(3-fluorobenzyl)-1H-benzo[d]imidazol-2-yl)-2-hydroxy-4-oxo-2-butenoic acid], in series [2], the “SI (selectivity index, CC50/EC50 ratio)” value stood at 8.7 and the half-maximal effective concentration (EC50) turned out to be 55 µM. This molecule came in with a CC50 at 72 h in the series “in vitro” of 480 µM.
For the molecule `COc1cccc(Cn2c(C(=O)C=C(O)C(=O)O)nc3ccccc32)c1` [Compound 13i, 4-(1-(3-methoxybenzyl)-1H-benzo[d]imidazol-2-yl)-2-hydroxy-4-oxo-2-butenoic acid], in series [2], the “SI (selectivity index, CC50/EC50 ratio)” value amounted to 5.4 and the EC50 amounted to 90 µM. This molecule yielded a CC50 at 72 h in the series “in vitro” of 490 µM.
With `O=C(O)/C(O)=C/C(=O)c1cccn1Cc1ccc(F)cc1` [L-731,988], in series [1], the cell toxicity entry is “low cell toxicity”.
As to `Cc1nnc(C(=O)NC(C)(C)c2nc(C(=O)NCc3ccc(F)cc3)c(O)c(=O)n2C)o1` [Raltegravir, reference compound], the EC50 in series [2] came to 0.9 µM. Moreover, in the series “in vitro”, the CC50 was > 500 µM.
